Measurements reported in US20100004267A1, “LIQUID PREPARATION” (ASUBIO PHARMA CO., LTD., priority 2006, published 2010).

Legend:
Assay type in all cases: physicochemical
[1] = Examination on prevention of light decomposition (Test example 5)
Method: To 800 mL of purified water, 100 g of Captisol (available from CyDex Inc.) serving as a solubilizing agent, 1 g of sodium bisulfite (available from JUNSEI CHEMICAL) serving as an antioxidant, and 5 g of SUN N8075 were sequentially dissolved, and the volume was adjusted to precisely 1,000 mL with purified water, and filtered under reduced pressure. Then each 20 mL of the solution was filled into a colorless ampule (Silicoat ampule, white, 20 mL capacity, available from FUJI GLASS CO., LTD.) and a brown ampule (Silicoat ampule, brown, 20 mL capacity, available from FUJI GLASS CO., LTD.), and then the ampule was sealed. Using autoclave (FLC-M09S30WZ, available from SAKURA SEIKI Co., Ltd.), autoclave sterilization was conducted in a setting condition: 121° C./24 minutes.
A sample of each of these ampules was stored under D65 lamp 2,000 Lux, and irradiated with 40, 80, 120×10^4 Lux, and then SUN N8075 related substances were measured with a HPLC device. The related substances were calculated as a peak ratio of the total related substances, relative to SUN N8075 peak area.
To 150 mL of purified water, a predetermined amount (none, 0.05 g, 0.1 g and 0.2 g) of sodium bisulfite (available from JUNSEI CHEMICAL) serving as an antioxidant, and 1 g of SUN N8075 were sequentially dissolved, and the volume was adjusted to precisely 200 mL with purified water. After filtering under reduced pressure, the solution was bubbled with nitrogen gas for 5 minutes. Then 20 mL of the solution was immediately filled into a brown ampule (Silicoat ampule, brown, 20 mL capacity, available from FUJI GLASS CO., LTD.) having subjected to nitrogen gas replacement, and then the ampule was sealed. Using autoclave (FLC-M09S30WZ, available from SAKURA SEIKI Co., Ltd.), autoclave sterilization was conducted in a setting condition: 121° C./24 minutes.
A sample of each of these ampules was stored under D65 lamp 2,000 Lux, and irradiated with 40×10^4 Lux, and then SUN N8075 related substances were measured with a HPLC device. The related substances were calculated as a peak ratio of the total related substances, relative to SUN N8075 peak area.
As a control sample, 1 g of SUN N8075 was dissolved into 150 mL of purified water, and the volume was adjusted precisely to 200 mL with purified water. Then the solution was filtered under reduced pressure, and bubbled with nitrogen gas for 5 minutes. Then 20 mL of the solution was immediately filled into a brown ampule (Silicoat ampule, brown, 20 mL capacity, available from FUJI GLASS CO., LTD.) replaced with nitrogen gas, and then the ampule was sealed.
This was prepared as a control sample at the start of the test, and SUN N8075 related substances were measured in the similar manner.

[2] = Examination on two-component antioxidant sodium bisulfite/L-cysteine hydrochloride monohydrate (Test example 6)
Method: According to the formulation of Tables 7 and 8, to 100-150 mL of purified water, sodium bisulfite (Japanese Pharmacopoeia; available from JUNSEI CHEMICAL), L-cysteine hydrochloride monohydrate (available from Nacalai Tesque), and SUN N8075 were added and dissolved in this order, and the volume was made precisely to 200 mL by addition of purified water.
After filtering under reduced pressure, the solution was bubbled with nitrogen gas for 5 minutes (not executed for the case “without nitrogen gas replacement”), and 20 mL of the solution was immediately filled into a brown ampule (Silicoat ampule, brown, 20 mL capacity, available from FUJI GLASS CO., LTD.) replaced with nitrogen gas (not executed for the case “without nitrogen gas replacement”), and then the ampule was sealed. Using autoclave (FLC-M09S30WZ, available from SAKURA SEIKI Co., Ltd.), autoclave sterilization was conducted in a setting condition: 121° C./24 minutes.
For each sample, insoluble foreign matters and odor were evaluated.
Evaluation of insoluble foreign matters was conducted using an appearance checker (under 1,000 Lux).
Also dissolved oxygen concentration in solution was measured.

[3] = Reduction in surface activity in SUN N8075 aqueous solution (Test example 7); design: key: A: In 20 minutes; B: In 60 minutes; C: 60 minutes to 3 days; D: Comparable to Control
Method: Into each test compound solution which was prepared in advance to achieve each adding concentration shown in the Table, SUN N8075 was added and dissolved so that the concentration thereof was 5 mg/mL, and the pH value was adjusted to 3 to 4 as appropriate by hydrochloric acid to prepare a sample solution.
Each 10 mL of sample solution was put into a 10-mL stoppered test tube, and shaken 30 strokes vertically by hand and allowed to stand upright, and under room diffused light, appearance of sample solution after shaking, foaming property (foaming quantity), defoaming time, post standing observation (after standing for 3 days or more) were evaluated.
As a control, an aqueous solution containing no test substance but containing 5 mg/mL of SUN N8075 was examined in a similar manner.

[4] = Control: without sodium bisulfite, brown ampule, Start
[5] = N2 gas replacement, sodium bisulfite 0.05%, brown ampule, irradiation 40 ×10^4 LUX
[6] = N2 gas replacement, sodium bisulfite 0.1%, brown ampule, irradiation 40 ×10^4 LUX
[7] = N2 gas replacement, sodium bisulfite […], brown ampule, irradiation 40 ×10^4 LUX
[8] = N2 gas replacement, without sodium bisulfite, brown ampule, irradiation 40 ×10^4 LUX
[9] = without N2 gas replacement, sodium bisulfite 0.1%, Captisol 10%, brown ampule, irradiation 40 ×10^4 LUX
[10] = without N2 gas replacement, sodium bisulfite 0.1%, Captisol 10%, brown ampule, irradiation 80 ×10^4 LUX
[11] = without N2 gas replacement, sodium bisulfite 0.1%, Captisol 10%, brown ampule, irradiation 120 ×10^4 LUX
[12] = without N2 gas replacement, sodium bisulfite 0.1%, Captisol 10%, colorless ampule, irradiation 40 ×10^4 LUX
[13] = without N2 gas replacement, sodium bisulfite 0.1%, Captisol 10%, colorless ampule, irradiation 80 ×10^4 LUX
[14] = without N2 gas replacement, sodium bisulfite 0.1%, Captisol 10%, colorless ampule, irradiation 120 ×10^4 LUX
[15] = sodium bisulfite 0.05% (0.1 g), L-cysteine HCl monohydrate 0.05 g (ratio 1/2), N2 done, dissolved oxygen 0.91 ppm
[16] = sodium bisulfite 0.05% (0.1 g), L-cysteine HCl monohydrate 0.1 g (ratio 1/1), N2 done, dissolved oxygen 0.88 ppm
[17] = sodium bisulfite 0.075% (0.15 g), L-cysteine HCl monohydrate 0.1 g (ratio 2/3), N2 done, dissolved oxygen 1.66 ppm
[18] = sodium bisulfite 0.075% (0.15 g), L-cysteine HCl monohydrate 0.5 g (ratio 1/1), N2 done, dissolved oxygen 0.97 ppm
[19] = sodium bisulfite 0.1% (0.2 g), L-cysteine HCl monohydrate 0.1 g (ratio 1/2), N2 done, dissolved oxygen 1.27 ppm
[20] = sodium bisulfite […] (0.05 g), L-cysteine HCl monohydrate 0.05 g (ratio 1/1), N2 done, dissolved oxygen 0.82 ppm

For `Cc1cc(OC[C@@H](O)CN2CCN(c3ccc(Cc4ccc(F)cc4)cc3)CC2)c(C)c(C)c1N` [SUN N8075, (2S)-1-(4-amino-2,3,5-trimethylphenoxy)-3-{4-[4-(4-fluorobenzyl)phenyl]-1-piperazinyl}-2-propanol dimethane sulfonate], the “Related Substance Peak ratio” value [1, 4] was 0.629, the “SUN N8075 Peak ratio” value [1, 4] was 99.37 and the “Related Substance Peak ratio” value [1, 5] was 0.608. The “SUN N8075 Peak ratio” value [1, 5] was 99.39, the “Related Substance Peak ratio” value [1, 6] was 0.567 and the “SUN N8075 Peak ratio” value [1, 6] was 99.43. The “Related Substance Peak ratio” value [1, 7] was 0.581, the “SUN N8075 Peak ratio” value [1, 7] was 99.42 and the “Related Substance Peak ratio” value [1, 8] was 0.967. For the same compound, the “SUN N8075 Peak ratio” value [1, 8] was 99.03, the “Related Substance Peak ratio” value [1, 9] was 1.140 and the “SUN N8075 Peak ratio” value [1, 9] was 98.86. The “Related Substance Peak ratio” value [1, 10] was 1.301, the “SUN N8075 Peak ratio” value [1, 10] was 98.70 and the “Related Substance Peak ratio” value [1, 11] was 1.750. The “SUN N8075 Peak ratio” value [1, 11] was 98.25, the “Related Substance Peak ratio” value [1, 12] was 4.552 and the “SUN N8075 Peak ratio” value [1, 12] was 95.45. For the same compound, the “Related Substance Peak ratio” value [1, 13] was 4.953, the “SUN N8075 Peak ratio” value [1, 13] was 95.05 and the “Related Substance Peak ratio” value [1, 14] was 5.987. The “SUN N8075 Peak ratio” value [1, 14] was 94.01, the “Amount of insoluble matters/after sterilization” value ([2]; sodium bisulfite 0.05% (0.1 g), L-cysteine HCl monohydrate 0.03 g (ratio 3/10), N2 done, dissolved oxygen 1.85 ppm) was “bit” and the “Amount of insoluble matters/after sterilization” value [2, 15] was “great”. For the same compound, the Odor/After sterilization [2, 15] was “Sulfur-”, the “Amount of insoluble matters/after sterilization” value [2, 16] was “great” and the Odor/After sterilization [2, 16] was “Sulfur-”. The “Amount of insoluble matters/after sterilization” value ([2]; sodium bisulfite 0.05% (0.1 g), no L-cysteine HCl monohydrate, N2 done, dissolved oxygen 0.82 ppm) was “bit”, the “Amount of insoluble matters/after sterilization” value ([2]; sodium bisulfite 0.075% (0.15 g), L-cysteine HCl monohydrate 0.05 g (ratio 1/3), N2 done, dissolved oxygen 1.39 ppm) was “Bit” and the “Amount of insoluble matters/after sterilization” value [2, 17] was “great”. The Odor/After sterilization [2, 17] was “Sulfur-”, the “Amount of insoluble matters/after sterilization” value [2, 18] was “great” and the Odor/After sterilization [2, 18] was “Sulfur-”. The “Amount of insoluble matters/after sterilization” value ([2]; sodium bisulfite 0.075% (0.15 g), no L-cysteine HCl monohydrate, N2 done, dissolved oxygen 1.24 ppm) was “bit”, the “Amount of insoluble matters/after sterilization” value [2, 19] was “great” and the Odor/After sterilization [2, 19] was “Sulfur”. For the same compound, the “Amount of insoluble matters/after sterilization” value ([2]; sodium bisulfite 0.1% (0.2 g), no L-cysteine HCl monohydrate, N2 done, dissolved oxygen 1.39 ppm) was “bit”, the “Amount of insoluble matters/after sterilization” value ([2]; sodium bisulfite 0.1% (0.2 g), no L-cysteine HCl monohydrate, N2 not done, dissolved oxygen 5.14 ppm) was “bit” and the “Amount of insoluble matters/after sterilization” value ([2]; sodium bisulfite […] (0.05 g), L-cysteine HCl monohydrate 0.015 g (ratio 3/10), N2 done, dissolved oxygen 1.88 ppm) was “Bit”. The “Amount of insoluble matters/after sterilization” value [2, 20] was “great”, the Odor/After sterilization [2, 20] was “Sulfur-” and the “Amount of insoluble matters/after sterilization” value ([2]; sodium bisulfite […] (0.05 g), no L-cysteine HCl monohydrate, N2 done, dissolved oxygen 0.52 ppm) was “bit”. The Defoaming time ([3]; Chlorobutanol 0.50%) was “C”, the Defoaming time ([3]; Chlorobutanol […]) was “C” and the Defoaming time ([3]; Ethanol 1.00%) was “C”. The Defoaming time ([3]; Glycine 100 mM) was “C”, the Defoaming time ([3]; Meglumine 25 mM) was “C” and the Defoaming time ([3]; Methane sulfonic acid 15 mM) was “C”. The Defoaming time ([3]; Propylene glycol 1.00%) was “C”, the Defoaming time ([3]; Sodium L-glutamate 30 mM) was “C” and the Defoaming time ([3]; Sodium chloride 50 mM) was “C”.
